# Data taken from publication PMC2667211, “Kinase Domain Insertions Define Distinct Roles of CLK Kinases in SR Protein Phosphorylation” (Structure(London, England:1993), 2009).
# Assays:
# CLK1 = CLK1 (Homo sapiens, UniProt P49759); experiment: coupled-enzyme kinase assay at […] inhibitor; thermal shift […]°C; format: biochemical
# CLK3 = target: T1, CLK3 (Homo sapiens, UniProt P49761); experiment: kinase assay at […] inhibitor; thermal shift screening; format: biochemical
# T1 construct: kinase domain, residues 127–484
# T1 sequence (P49761 127-484): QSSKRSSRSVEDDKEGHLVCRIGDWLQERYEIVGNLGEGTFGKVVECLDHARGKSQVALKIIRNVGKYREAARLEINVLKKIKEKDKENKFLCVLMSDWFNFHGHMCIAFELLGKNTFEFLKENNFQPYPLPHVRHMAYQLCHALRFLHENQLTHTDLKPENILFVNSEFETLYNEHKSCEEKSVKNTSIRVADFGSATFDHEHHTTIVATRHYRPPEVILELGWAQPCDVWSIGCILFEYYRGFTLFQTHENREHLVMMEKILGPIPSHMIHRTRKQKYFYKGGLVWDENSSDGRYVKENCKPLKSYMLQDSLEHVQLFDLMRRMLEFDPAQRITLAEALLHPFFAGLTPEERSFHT
# Chain of CLK1 (P49759 148-484): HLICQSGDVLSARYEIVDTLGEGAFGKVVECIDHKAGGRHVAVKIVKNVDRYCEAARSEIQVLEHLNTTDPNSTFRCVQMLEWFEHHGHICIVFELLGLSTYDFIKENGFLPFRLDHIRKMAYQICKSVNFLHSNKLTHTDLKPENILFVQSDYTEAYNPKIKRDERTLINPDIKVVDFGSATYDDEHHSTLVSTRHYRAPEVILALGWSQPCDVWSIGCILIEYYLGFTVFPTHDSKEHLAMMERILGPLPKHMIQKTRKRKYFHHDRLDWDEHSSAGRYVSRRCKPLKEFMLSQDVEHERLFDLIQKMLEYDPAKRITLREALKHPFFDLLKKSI
smiles,measurement,setting,value
"Nc1nc(Nc2ccc(S(N)(=O)=O)cc2)nn1C(=S)Nc1c(F)cccc1F [compound 11, CDK1/2 inhibitor]",% activity at 100 nM,CLK1,< 1
same,% activity at 100 nM,CLK3,< 50
